According to patent US20200093856A1, “Hydrogen-containing composition for ameliorating depressive symptom” (MiZ Company Limited, priority 2018, published 2020):

Tested on: patient diagnosed as having depression
Assay: Case of improvement of depressive symptoms by aspiration (or inhalation) of hydrogen
Assay type: in vivo, human
Settings: for symptoms (depressive symptoms, anthropophobia, insomnia) under prescribed medication: patient, Abilify intramuscular injections, Lexotan Tablet 2 and Brotizolam Tablet taken together, before hydrogen
From the text: A patient diagnosed as having depression, who had suffered from anthropophobia and insomnia along with depressive symptoms, received intramuscular injections of Abilify™ (Otsuka Pharmaceutical Co., Ltd. (Japan); with indication of depressive disorder) prescribed by a doctor at the department of psychiatry, and took Lexotan™ Tablet 2 (Chugai Pharmaceutical Co., Ltd. (Japan); with an indications of anxiety and tension associated with depressive disorder) and Brotizolam Tablet (Choseido Pharmaceutical Co., Ltd.; with indication of insomnia); however, the symptoms were not improved. Thus, hydrogen gas (70 to 140 ml/min) was aspirated for 1 hour once or twice a day using a hydrogen aspirator (MHG-2000α™ (MiZ Company Limited)) over about half a year while the medication was continued. As a result, the number of days on which it was possible to naturally fall asleep increased (2 or 3 days a week), and the liveliness of voice was enhanced. About half a year after the start of aspiration (or inhalation) of hydrogen gas, administration of the Brotizolam Tablet was discontinued, and the amount of hydrogen gas aspirated was increased (280 ml/min for 6 hours per day). The aspiration of hydrogen gas was continued over about 3 months. As a result, the depressive symptoms were improved, and therefore the use of Abilify and Lexotan Tablet 2 was discontinued on the basis of the doctor's judgement. […] After the use of Abilify and Lexotan Tablet 2, aspiration of hydrogen gas (280 ml/min for 6 hours per day) was continued.

[1] = hydrogen gas 280 ml/min for 6 hours per day continued after Abilify and Lexotan Tablet 2 were discontinued

Q: With `O=C1CCc2ccc(OCCCCN3CCN(c4cccc(Cl)c4Cl)CC3)cc2N1` [Abilify, aripiprazole, reference compound] as the compound, how does the “symptoms (depressive symptoms, anthropophobia, insomnia) under prescribed medication” value (from here on “symptoms … under prescribed medication”) read?
A: not improved

Q: How did the “symptoms … under prescribed medication” value turn out when `Cc1nnc2n1-c1sc(Br)cc1C(c1ccccc1Cl)=NC2` [Brotizolam Tablet, Brotizolam, reference compound] was run?
A: not improved

Q: With `O=C1CN=C(c2ccccn2)c2cc(Br)ccc2N1` [Lexotan Tablet 2, bromazepam, reference compound] as the compound, how does the “symptoms … under prescribed medication” value read?
A: not improved

Q: `[HH]` [hydrogen gas, hydrogen] was tested. Which liveliness of voice (hydrogen gas 70 to 140 ml/min aspirated 1 hour once or twice a day over about half a year, medication continued) did it give?
A: enhanced

Q: And the “care personnel's evaluation of the patient” value [1]?
A: being much more cheerful in disposition than before

Q: What about the depressive symptoms [1] of the same compound?
A: improved to the extent that the patient went outside more frequently than before, and enjoyed a life similar to a healthy person

Q: What about the depressive symptoms (hydrogen gas 280 ml/min for 6 hours per day over about 3 months, Brotizolam discontinued, Abilify and Lexotan continued) of the same compound?
A: improved

Q: What about the “improving effect on depressive symptoms versus amount of hydrogen gas aspirated per day” value (same patient, 70 to 140 ml/min 1 hour once or twice a day versus 280 ml/min 6 hours per day) of the same compound?
A: enhanced as the amount of hydrogen gas aspirated by the patient per day increases
